In patent publication US10934346B2, “Modified T cell comprising a polynucleotide encoding an inducible stimulating molecule comprising MyD88, CD40 and FKBP12” (priority 2014, dated 2021):

Tests used:
IC-21 macrophages = test: IL-6 ELISA of adenovirus-transduced IC-21 macrophages with AP1903; assay type: cell-based
Excerpt: Inducible chimeric polypeptides of the present application were expressed in various cell types along with a tumor antigen. […] Cell lines included keratinocytes, melanocytes (for example, B16-F10 melanoma), macrophages (for example, IC-21), and fibroblasts (for example, BLK-CL4). FIG. 22 provides a schematic overview of the process by which expression of the chimeric polypeptide, after contacting AP1903, can induce the expression of inflammatory cytokines and chemokines in the transduced cell. FIG. 23 provides a schematic of an assay used to measure PSMA expression and cytokine secretion in transduced cells. The cells were transduced with one of four adenovirus Ad5 vectors: Ad5-iMC-RP-FL; Ad5-iMC-P2A-P-FL; Ad5f35iMC-RP-FL; or Ad5f35iMC-P2A-FL. […] IC-21 macrophages were cultured at 100,000 cells/ml/well in 24-well plates. […] A. Cells were labeled with anti-human PSMA antibody, LNI-17, (Biolegend, San Diego, Calif.) and PSMA expression was analyzed by flow cytometry. […] B. IL-6 was evaluated from the culture supernatants by ELISA (e-Bioscience, San Diego, Calif.). […] A. Cells were labeled with anti-human PSMA antibody, LNI-17, (Biolegend, San Diego, Calif.) and PSMA expression was analyzed by flow cytometry. […] B. IL-6 was evaluated from the culture supernatants by ELISA (e-Bioscience, San Diego, Calif.). […] IL-6 was evaluated from the culture supernatants by ELISA (e-Bioscience, San Diego, Calif.).

[1] = system: JNK, Akt, RelA, ERK and p38 MAPK; test: Phosphorylation of downstream signaling molecules (Milliplex MAP assay, immunoblotting); assay type: cell-based, human; conditions: 10 nM rimiducid, iMC T cells
Protocol: Immunoblotting. Primary human T cells transduced with either SFG-FKBP-2A-ΔCD19 or SFG-iMC-2A-ΔCD19 (4×10^6 per point) were cultured for the indicated time points in a 37° C. water bath with either 10 nM rimiducid, 250 nM each PMA and ionomycin, or media alone. Media as removed by aspiration after centrifugation at 6000 rpm for 2 min at 4° C. Cytoplasmic extracts were prepared by lysis in 100 μl radioimmuno-precipitation assay buffer (50 mM Tris, 150 mM NaCl, 1% NP40, 2 mM EDTA, 0.1% SDS, 0.25% sodium deoxycholate) containing 1×MS-SAFE (Roche). Lysates were incubated on ice for 10 min and cytoplasmic fractions were cleared by centrifugation at 11,000 rpm for 20 min at 4° C. […] Bound Abs were detected by HRP-conjugated goat-anti-rabbit IgG Ab (Pierce), followed by ECL (Pierce) and detection on a Gel Logic imaging system (Carestream). […]
Phosphorylated epitopes were detected in Assay Buffer 2 (MILLIPLEX MAP kit) with antibodies specific for p-RelA(S536), p-Akt(S473), p-p38(T180/Y182), p-JNK(T183/Y185), p-ERK1/2(T202/Y204) (custom MILLIPLEX Magnetic Bead MAPMATE kit; Millipore) or GAPDH as a control for total protein content. Fold increase in phosphorylation was calculated by net MFI of rimiducid treatment at a given time point divided by the net MFI of the corresponding non-stimulated time point. […]

SMILES: CC[C@H](C(=O)N1CCCC[C@H]1C(=O)O[C@H](CCc1ccc(OC)c(OC)c1)c1cccc(OCC(=O)NCCNC(=O)COc2cccc([C@@H](CCc3ccc(OC)c(OC)c3)OC(=O)[C@@H]3CCCCN3C(=O)[C@@H](CC)c3cc(OC)c(OC)c(OC)c3)c2)c1)c1cc(OC)c(OC)c(OC)c1 (relative stereo) [rimiducid, 2-Piperidinecarboxylic acid, 1-[(2S)-1-oxo-2-(3,4,5-trimethoxyphenyl)butyl]-, 1,2-ethanediylbis [imino(2-oxo-2,1-ethanediyl)oxy-3,1-phenylene[(1R)-3-(3,4-Dimethoxyphenyl)propylidene]] ester, [2S-[1(R*),2R*[S*[S*[1(R*),2R*]]]]]-(9Cl)]
- IL-6 production (IC-21 macrophages; 100 nM AP1903): response to AP1903 by producing IL-6
- activation of IL-6, dependence on AP1903 (IC-21 macrophages; macrophages): occurred in the presence or absence of AP1903
- onset of signaling after exposure [1]: ≤ 15 min
- phosphorylation of signaling pathways [1]: each of these signaling pathways show increased phosphorylation in T cells, with MAPK and JNK showing the greatest rimiducid-dependent activation
